Legend:
Assay in all cases: CDK enzymology experiment in vitro, capillary mobility shift assay (MSA)
Type in all cases: biochemical
[1] = target: T1, CDK4 (Homo sapiens, UniProt P11802); details: read-out: CDK4 (nM) inhibitory IC50
T1 construct: purchased Carna Company
Description: (§1) CDK1/CDK2/CDK4/CDK6/CDK7/CDK9 were purchased from Carna Company; Carliper substrate CTD3/substrate 18/substrate 8 were purchased from Gil Biochemical Company; Dinaciclib/Palbociclib were purchased from Selleckchem Company; DMSO was purchased from Sigma Company; 384-well plates were purchased from Corning Company.
(§2) • (1) Preparation of 1×Kinase buffer. • (2) Preparation of compound concentration gradient: Test concentration of the test compound was started at 1 μM, 10 μM or 30 μM, 3-fold dilution, 10 concentrations, detected in duplicate. The test compound was diluted to a 100-fold final concentration with 100% DMSO solution in a 384 source plate. Liquid handler Echo 550 was used to transfer 250 nL of 100-fold final concentration of the compound to the target plate 384-well plate. […] The 384-well plate was centrifuged at 1000 rpm for 30 seconds, and shaken to mix uniformly. • (10) The conversion rate was read with Caliper EZ Reader.
(§3) Where, conversion %_sample is the readings of conversion rate of the sample; conversion %_min: the average value of negative control wells, representing the readings of conversion rate of wells without enzyme activity; conversion %_max: the average value of positive control wells, representing the readings of conversion rate of wells without compound inhibition.
(§4) Taking the log value of the concentration as the X-axis, and the percentage inhibition rate as the Y-axis, the dose-effect curve was fitted using the log(inhibitor) vs. response—Variable slope of the analysis software GraphPad Prism 5 so as to obtain the IC50 value of each compound on the enzyme activity.
(§5) Y=Bottom+(Top−Bottom)/(1+10^((Log IC50−X)*HillSlope)). Calculation formula: […]

[2] = target: T2, CDK2 (Homo sapiens, UniProt P24941); details: read-out: CDK2 (nM) inhibitory IC50
T2 construct: purchased Carna Company
Description: as §1, §2, §3, §4, §5

[3] = target: T3, CDK6 (Homo sapiens, UniProt Q00534); details: read-out: CDK6 (nM) inhibitory IC50
T3 construct: purchased Carna Company
T3 sequence (Q00534 whole entry): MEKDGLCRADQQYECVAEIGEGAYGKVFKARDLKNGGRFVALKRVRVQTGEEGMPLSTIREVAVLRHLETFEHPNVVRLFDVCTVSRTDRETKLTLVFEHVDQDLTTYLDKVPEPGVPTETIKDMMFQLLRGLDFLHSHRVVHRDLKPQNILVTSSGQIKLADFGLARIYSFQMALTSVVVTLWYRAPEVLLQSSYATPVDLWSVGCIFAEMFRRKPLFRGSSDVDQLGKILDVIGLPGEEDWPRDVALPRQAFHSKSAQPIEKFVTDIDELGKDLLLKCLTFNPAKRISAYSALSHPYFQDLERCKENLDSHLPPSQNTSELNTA
T3 sequence (P30281 whole entry partner): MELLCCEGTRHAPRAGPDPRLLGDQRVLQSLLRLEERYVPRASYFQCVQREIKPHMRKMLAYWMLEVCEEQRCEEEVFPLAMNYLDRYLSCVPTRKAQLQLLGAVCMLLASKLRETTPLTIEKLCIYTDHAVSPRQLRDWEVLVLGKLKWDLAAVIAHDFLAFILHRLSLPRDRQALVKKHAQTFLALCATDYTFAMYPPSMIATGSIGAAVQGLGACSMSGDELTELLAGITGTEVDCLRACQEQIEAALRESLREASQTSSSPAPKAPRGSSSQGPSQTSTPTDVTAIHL
Description: as §1
as §2, with “The test compound was diluted to a 100-fold final concentration with 100% DMSO solution in a 384 source plate.” left out
as §3, §4, §5

T1 sequence (P11802 whole entry): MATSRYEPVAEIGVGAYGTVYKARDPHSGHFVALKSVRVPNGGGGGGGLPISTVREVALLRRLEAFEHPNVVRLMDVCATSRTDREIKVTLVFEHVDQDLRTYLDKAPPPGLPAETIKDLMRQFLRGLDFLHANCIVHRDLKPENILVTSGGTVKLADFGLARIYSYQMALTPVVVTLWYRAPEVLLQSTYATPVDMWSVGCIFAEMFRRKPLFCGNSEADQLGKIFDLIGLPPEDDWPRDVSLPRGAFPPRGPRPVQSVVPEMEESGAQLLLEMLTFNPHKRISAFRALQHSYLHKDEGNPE
T1 sequence (P30281 whole entry partner): as the sequence (P30281 whole entry partner) above

| Compound | IC50 [1] [nM] | IC50 [2] [nM] | IC50 [3] [nM] |
| --- | --- | --- | --- |
| O=S(=O)(c1ccc(C2=CCNCC2)cn1)N1CCC(Nc2ncc(C(F)(F)F)c(O[C@H]3CCOC3)n2)CC1 [Compound 176] | 0.5 to 2.5 | < 0.5 | 0.5 to 2.5 |
| Cn1cc(S(=O)(=O)N2CCC(Nc3ncc(C#N)c(NC4(C)CCCC4)n3)CC2)cn1 [Compound 118] | 0.5 to 2.5 | 0.5 to 2.5 | 0.5 to 2.5 |
| O=S(=O)(c1ccc(C23CCNCC2C3)cc1)N1CCC(Nc2ncc(C(F)(F)F)c(O[C@H]3CCOC3)n2)CC1 (stereo partly drawn) [Compound 159] | 0.5 to 2.5 | 0.5 to 2.5 | 0.5 to 2.5 |
| N#Cc1cnc(NC2CCN(S(=O)(=O)c3ccc(N4CCNC(=O)C4)cc3)CC2)nc1NC1CCCC1 [Compound 103] | 2.5 to 10 | 0.5 to 2.5 | 0.5 to 2.5 |
| N#Cc1cnc(NC2CCN(S(=O)(=O)c3ccc(N4CCNCC4)cc3)CC2)nc1NC1CCCC1 [Compound 90] | 0.5 to 2.5 | 0.5 to 2.5 | 0.5 to 2.5 |
| Cn1cc(-c2ccc(S(=O)(=O)N3CCC(Nc4ncc(C#N)c(N[C@H]5CC[C@H](O)C5)n4)CC3)cc2)cn1 (single isomer, unassigned) [Compound 83] | 0.5 to 2.5 | 0.5 to 2.5 | 0.5 to 2.5 |
| O=S(=O)(c1ccc(C2CCNCC2)cc1)N1CCC(Nc2ncc(C(F)(F)F)c(NC3CCCC3(F)F)n2)CC1 (stereo not drawn) [Compound 137] | 0.5 to 2.5 | 0.5 to 2.5 | 0.5 to 2.5 |
| O=S(=O)(c1ccc(C2CNC2)c(F)c1)N1CCC(Nc2ncc(C(F)(F)F)c(O[C@H]3CCOC3)n2)CC1 [Compound 160] | 2.5 to 10 | 0.5 to 2.5 | 0.5 to 2.5 |
| Cn1cc(-c2ccc(S(=O)(=O)N3CCC(Nc4ncc(C#N)c(N[C@@H]5CC[C@H](O)C5)n4)CC3)cc2)cn1 (single isomer, unassigned) [Compound 87] | 0.5 to 2.5 | 0.5 to 2.5 | 0.5 to 2.5 |
| O=S(=O)(c1ccc(C2CCNCC2)nc1)N1CCC(Nc2ncc(C(F)(F)F)c(O[C@H]3CCOC3)n2)CC1 [Compound 174] | 0.5 to 2.5 | < 0.5 | 0.5 to 2.5 |
| Cn1cc(S(=O)(=O)N2CCC(Nc3ncc(C#N)c(N(C4CCCC4)C4CC4)n3)CC2)cn1 [Compound 82] | 2.5 to 10 | 0.5 to 2.5 | 0.5 to 2.5 |
| O=S(=O)(c1ccc(C2=CCNCC2)c(F)c1)N1CCC(Nc2ncc(C(F)(F)F)c(O[C@H]3CCOC3)n2)CC1 [Compound 121] | 0.5 to 2.5 | < 0.5 | 0.5 to 2.5 |
| O=S(=O)([C@H]1CCCNC1)N1CCC(Nc2ncc(C(F)(F)F)c(NC3CCCC3)n2)CC1 [Compound 163] | 2.5 to 10 | 2.5 to 10 | 0.5 to 2.5 |
| N#Cc1cnc(NC2CCN(S(=O)(=O)c3ccc(C4=CCNCC4)cc3)CC2)nc1N[C@H]1CCOC1 [Compound 92] | 2.5 to 10 | 2.5 to 10 | 0.5 to 2.5 |
| O=S(=O)(c1ccc(N2CC3CC(C2)N3)cc1)N1CCC(Nc2ncc(C(F)(F)F)c(O[C@H]3CCOC3)n2)CC1 [Compound 179] | 0.5 to 2.5 | < 0.5 | 0.5 to 2.5 |
| N#Cc1cnc(NC2CCN(S(=O)(=O)c3ccc(C4CCNCC4)cc3)CC2)nc1NC1CCCC1(F)F (stereo not drawn) [Compound 138] | 0.5 to 2.5 | 0.5 to 2.5 | 0.5 to 2.5 |
| O=S(=O)(c1ccc(C2=CCNCC2)nc1)N1CCC(Nc2ncc(C(F)(F)F)c(O[C@H]3CCOC3)n2)CC1 [Compound 173] | 0.5 to 2.5 | < 0.5 | 0.5 to 2.5 |
| O=S(=O)(c1ccc(N2CC3CC(C2)N3)nc1)N1CCC(Nc2ncc(C(F)(F)F)c(O[C@H]3CCOC3)n2)CC1 [Compound 180] | 0.5 to 2.5 | < 0.5 | 0.5 to 2.5 |
| C[C@@H]1CN(c2ccc(S(=O)(=O)N3CCC(Nc4ncc(C(F)(F)F)c(O[C@H]5CCOC5)n4)CC3)cc2)CCN1 [Compound 185] | 0.5 to 2.5 | < 0.5 | 0.5 to 2.5 |
| N#Cc1cnc(NC2CCN(S(=O)(=O)c3ccc(C4=CCNCC4)cc3)CC2)nc1NC1CCCC1(F)F (stereo not drawn) [Compound 135] | 0.5 to 2.5 | 0.5 to 2.5 | 0.5 to 2.5 |
| O=S(=O)(c1ccc(N2C3CCC2CNC3)nc1)N1CCC(Nc2ncc(C(F)(F)F)c(O[C@H]3CCOC3)n2)CC1 [Compound 183] | 0.5 to 2.5 | < 0.5 | 0.5 to 2.5 |
| Nc1ccc(S(=O)(=O)N2CCC(Nc3ncc(C(F)(F)F)c(O[C@H]4CCOC4)n3)CC2)cn1 [Compound 123] | 2.5 to 10 | < 0.5 | 10 to 50 |
| O=S(=O)(c1ccc(N2CC[C@@H](O)C2)cc1)N1CCC(Nc2ncc(C(F)(F)F)c(O[C@H]3CCOC3)n2)CC1 [Compound 140] | 0.5 to 2.5 | 0.5 to 2.5 | 0.5 to 2.5 |
| Cn1cc(-c2ccc(S(=O)(=O)N3CCC(Nc4ncc(C#N)c(N[C@H]5CC[C@@H](O)C5)n4)CC3)cc2)cn1 (single isomer, unassigned) [Compound 86] | 0.5 to 2.5 | < 0.5 | 0.5 to 2.5 |
| O=S(=O)(c1cnn(C2CCNCC2)c1)N1CCC(Nc2ncc(C(F)(F)F)c(O[C@H]3CCOC3)n2)CC1 [Compound 119] | 0.5 to 2.5 | < 0.5 | 0.5 to 2.5 |
| Cc1cc(S(=O)(=O)N2CCC(Nc3ncc(C(F)(F)F)c(O[C@H]4CCOC4)n3)CC2)ccc1C1CCNCC1 [Compound 155] | 0.5 to 2.5 | < 0.5 | 0.5 to 2.5 |

Other lines, results leading:

| IC50 [1] [nM] | IC50 [2] [nM] | IC50 [3] [nM] | Compound |
| --- | --- | --- | --- |
| 0.5 to 2.5 | 0.5 to 2.5 | 0.5 to 2.5 | C[C@H]1CNCCN1c1ccc(S(=O)(=O)N2CCC(Nc3ncc(C(F)(F)F)c(O[C@H]4CCOC4)n3)CC2)cc1 [Compound 198] |
| 0.5 to 2.5 | < 0.5 | 0.5 to 2.5 | Cc1cc(S(=O)(=O)N2CCC(Nc3ncc(C(F)(F)F)c(O[C@H]4CCOC4)n3)CC2)ccc1C1CCCNC1 (stereo partly drawn) [Compound 192] |
| 2.5 to 10 | 0.5 to 2.5 | 0.5 to 2.5 | C[C@@H]1CN(c2ccc(S(=O)(=O)N3CCC(Nc4ncc(C(F)(F)F)c(O[C@H]5CCOC5)n4)CC3)cc2)C[C@@H](C)N1 [Compound 208] |
| 0.5 to 2.5 | < 0.5 | 0.5 to 2.5 | O=S(=O)(c1ccc(C2CCCNC2)c(F)c1)N1CCC(Nc2ncc(C(F)(F)F)c(O[C@H]3CCOC3)n2)CC1 (stereo partly drawn) [Compound 193] |
| 0.5 to 2.5 | < 0.5 | 0.5 to 2.5 | O=S(=O)(c1ccc(N2CC3CNCC3C2)cc1)N1CCC(Nc2ncc(C(F)(F)F)c(O[C@H]3CCOC3)n2)CC1 (stereo partly drawn) [Compound 191] |
| 0.5 to 2.5 | 0.5 to 2.5 | 0.5 to 2.5 | CN1CC=C(c2ccc(S(=O)(=O)N3CCC(Nc4ncc(C#N)c(NC5CCCC5)n4)CC3)cc2)CC1 [Example 16, 4-(Cyclopentylamino)-2-((1-((4-(1-methyl-1,2,3,6-tetrahydropyridin-4-yl)phenyl)sulfonyl)piperidin-4-yl)amino)pyrimidine-5-carbonitrile] |
| 0.5 to 2.5 | 0.5 to 2.5 | 0.5 to 2.5 | O=S(=O)(c1ccc(C2CCCNC2)cc1)N1CCC(Nc2ncc(C(F)(F)F)c(O[C@H]3CCOC3)n2)CC1 (stereo partly drawn) [Example 113, N-(1-((4-(Piperidin-3-yl)phenyl)sulfonyl)piperidin-4-yl)-4-(((S)-tetrahydrofuran-3-yl)oxy)-5-(trifluoromethyl)pyrimidin-2-amine] |
| 2.5 to 10 | < 0.5 | 0.5 to 2.5 | Cn1cc(S(=O)(=O)N2CCC(Nc3ncc(C#N)c(OC4CCCC4)n3)CC2)cn1 [Example 6, 4-(Cyclopentyloxy)-2-((1-((1-methyl-1H-pyrazol-4-yl)sulfonyl)piperidin-4-yl)amino)pyrimidine-5-carbonitrile] |
| 2.5 to 10 | 0.5 to 2.5 | 0.5 to 2.5 | C[C@@H]1CN(c2ccc(S(=O)(=O)N3CCC(Nc4ncc(C(F)(F)F)c(O[C@H]5CCOC5)n4)CC3)cn2)C[C@@H](C)N1 [Compound 207] |
| 0.5 to 2.5 | 0.5 to 2.5 | 0.5 to 2.5 | CN1CCN(c2ccc(S(=O)(=O)N3CCC(Nc4ncc(C#N)c(NC5CCCC5)n4)CC3)cc2)CC1 [Example 18, 4-(Cyclopentylamino)-2-((1-((4-(4-methylpiperazin-1-yl)phenyl)sulfonyl)piperidin-4-yl)amino)pyrimidine-5-carbonitrile] |
| 0.5 to 2.5 | < 0.5 | 0.5 to 2.5 | C[C@@H]1CN(c2ccc(S(=O)(=O)N3CCC(Nc4ncc(C(F)(F)F)c(O[C@H]5CCOC5)n4)CC3)cn2)CCN1 [Compound 187] |
| 10 to 50 | 0.5 to 2.5 | 2.5 to 10 | C[C@@H]1CN(c2ccc(S(=O)(=O)N3CCC(Nc4ncc(C(F)(F)F)c(O[C@@H]5CCOC5)n4)CC3)cc2)C[C@H](C)N1 [Compound 210] |
